According to PMC2714694, “Conservation of the glucan phosphatase laforin is linked to rates of molecular evolution and the glucan metabolism of the organism” (BMC Evolutionary Biology, 2009):

Target: T1, Nv-laforin (Nematostella vectensis, UniProt A7SVW9)
T1 construct: gene NEMVEDRAFT_v1g194103; complete open reading frame from Nematostella DNA; GST-Nv-laforin-HIS6 from E. coli BL21 (DE3) CodonPlus RIL; CBM20 plus DSP
T1 sequence (A7SVW9 1-324): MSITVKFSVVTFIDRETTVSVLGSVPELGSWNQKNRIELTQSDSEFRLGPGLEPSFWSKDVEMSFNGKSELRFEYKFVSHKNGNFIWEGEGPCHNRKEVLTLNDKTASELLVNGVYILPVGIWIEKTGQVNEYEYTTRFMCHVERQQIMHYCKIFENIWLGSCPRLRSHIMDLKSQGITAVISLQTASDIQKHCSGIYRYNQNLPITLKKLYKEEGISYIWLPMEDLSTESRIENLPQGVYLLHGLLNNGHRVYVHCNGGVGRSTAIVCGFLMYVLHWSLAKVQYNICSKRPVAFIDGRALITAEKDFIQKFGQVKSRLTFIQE
Assay: p-NPP hydrolysis, absorbance […] nm
Assay type: biochemical
Details: 50 mM pNPP, pH 5-8 tested (optimum pH 7.5), 37 °C, 2 mM dithiothreitol, 0.1 M sodium acetate, 0.05 M bis-Tris, 0.05 M Tris-HCl

## O=[N+]([O-])c1ccc(OP(=O)(O)O)cc1 [para-nitrophenylphosphate]
  p-NPP hydrolysis, absorbance 410 nm: Both Bf- and Nv-laforin also utilized p-NPP as an artificial substrate
